Here are results for seven compounds from patent publication US20100278896A1, “SOLID COMPOSITIONS” (UCL BUSINESS PLC, priority 2007, published 2010).

Series [1] in a line: Tablet release in flow rig, pH 7.6 aqueous solution, 37° C., flow rate 2 μl/min, HPLC. The class given is physicochemical. As for the experimental part: To obtain some indication of release kinetics, flow rigs of 50-200 μl capacity were used to model the bleb. An Ilomastat tablet (one tablet per rig) was placed into the flow chamber. Two tubes are connected to each rig: one was connected to a peristaltic pump to introduce an aqueous solution and the other tube allowed the removal of the solution out of the rig. Flow rates were used to model the flow of the aqueous solution into and out from the subconjunctival space to the scleral veins.
A range of flow rates was used in the rig experiments; however, in most of the experiments a flow rate of 2 μl/min was used to simulate the aqueous flow rate in the bleb. To further simulate the actual conditions in the eye, the aqueous solution used was maintained at pH 7.4-7.6 (as this is the pH of normal human aqueous humor) and the temperature was maintained at 37° C. The aqueous solution that was prepared using Oxoid® Phosphate Buffered Saline Tablets (one tablet for every 100 ml of de-ionized water). The PBS tablets were dissolved in de-ionized water and the pH was adjusted to 7.6. The aqueous solution was kept at 37° C.
The mobile phase was prepared as follows. […] When the pH was adjusted, de-ionized water was added to make the buffer volume of 1000 ml. Aliquots of each sample (0.1 ml) were transferred to HPLC vials that were then placed in the HPLC auto-sampler. […] Three injections (10 μl each) for each time point were evaluated. A computer was connected with the UV detector and with the use of the programme Chrom+, the peak area was analyzed to determine the amount of Ilomastat. […] The average of the three measurements was used to determine the amount of Ilomastat. […]
As indicated above, a tablet of solid 5-FU was fabricated using the same technique as described above. The dissolution rate of the tablet was then determined using the same rig as described above.
Each tablet was placed into the rig as described above and liquid samples analysed by HPLC and concentration of 5-FU was determined using the calibration curve. […]

The test system of series [2] is Human Tenon's fibroblasts (HTF). To be noted: cited from earlier work; for contraction of HTF populated collagen gels: dose-dependent, Daniels et al., 2003.
For series [3] the following is noted: Engalytcheff et al. 2004; cited from earlier work.
Series [4] concerns Human Tenon's fibroblasts (HTF). The experiment in a line: Contraction of HTF collagen I gels (in vitro contraction model). To be noted: for Contraction (%) of HTF collagen I gels: media without DMSO; for Contraction (%) of HTF collagen I gels, Average / Contraction (%) of HTF collagen I gels, Group 1 / Contraction (%) of HTF collagen I gels, Group 2 / Contraction (%) of HTF collagen I gels, Group 3 / Contraction (%) of HTF collagen I gels, Group 4: 2nd in vitro experiment. The class given is cell-based. As for the experimental part:
Human Tenon's fibroblasts (HTF) were used for in vitro cultures. These cells are involved in subconjunctival scarring. The process of HTF isolation and proliferation was performed by using 0.5 cm^3 tissue explants from donor eyes obtained from Moorfields Hospital Eye Bank under the Tenets of the Declaration of Helsinki (1989). Explants of 0.5 cm^3 were kept for two hours in the bottom of 25 cm^3 flasks, with a coverslip placed over them. Each flask contained 5 ml of normal culture medium consisting of Dulbecco's modified Eagle's Medium (DMEM) with 10% fetal calf serum, 2 mM L-glutamine, 100 U/ml penicillin, […] gentamicin, 100 μg/ml streptomycin and 0.25 μg/ml amphotericin. The flasks were placed in incubators at 37° C. and 5% humidified CO2 in air. The culture medium was changed every 3 days and when they became confluent, usually within one month, they were passaged into new flasks for direct experimental use or were stored in liquid nitrogen.
After the HTFs reached confluence, the culture medium was aspirated and the monolayer was washed with 1 ml of trypsin 1× (Gibco) and the trypsin was quickly aspirated for about 15 seconds. Next, 2 ml of trypsin 1× (Gibco) were added to each flask and HTFs were detached from the flasks by incubation for 2 minutes at 37° C. and 5% humidified CO2 in air. After confirming by phase contrast microscopy using a Leica microscope with ×10 magnification that the cells had been detached from the bottom of the flask and that they had obtained a round shape, 2 ml of cell culture medium were added to neutralise the trypsinisation. The cell suspension was transferred to a 15 ml centrifuge tube (STARLAB GMBH) and was centrifuged at 1600 rpm for 5 minutes. The cell pellet was then resuspended in 10 ml of cell culture medium and was divided into 4 different 75 cm^3 flasks (1:4 expansion). In each flask 7.5 ml of cell culture medium were added. Flasks were placed in incubators at 37° C. and 5% humidified CO2 in air and the culture media was changed every three days. The time that was required from passage to passage in order to reach confluence was 1 week on average.
With a Neubauer plate, 6.2×10^4 HTF were counted and then were resuspended in 170 μl FBS in a 50 ml universal tube. Concentrated medium (160 μl) was added (stock solution consisting of 3.5 ml DMEM (×10 stock), 0.35 ml glutamine (2 mM stock) and 0.9 ml sodium bicarbonate (7.5% stock). 830 μl of First Link type I collagen solution collagen (stock 2.2 mg/ml in 0.6% acetic acid) were then added and the solution was mixed by swirling to avoid air bubbles. Sterile 1M NaOH (75-80 μl) was rapidly added to change the acidic pH of the solution. This caused the solution to turn a pink colour without reverting back to yellow. Quickly 150 μl collagen gel solution was cast into the wells of Mattek dishes making sure to cast the gel to the edges of the central groove using the pipette tip. Creation of air bubbles when ejecting the gel from the tip should be avoided. If air bubbles were formed, they were aspirated out. Usually, from a 1.2 ml gel suspension, 6 gels can easily be cast. Following this process, the wells of Makket dishes with the gels were placed in incubator to set for at least 10-15 min (up to 30 mins). Gels were detached from the edges of the central groove using yellow tips and excess unpolymerised solution was aspirated off. Two milliliters of cell culture medium were added and the dishes were placed in incubators at 37° C. and 5% humidified CO2 in air; the medium was replaced every 3 days.
Generally solid Ilomastat is diluted into DMSO before being added into the media, however in this experiment Ilomastat could be directly dissolved in the normal media without DMSO. […] The concentration of both samples was then confirmed by HPLC.
To compare with irradiated Ilomastat, experiments were conducted with three different treatment groups of collagen gels. Each treatment group had 3 collagen I gels with HTFs. […]

Series [5] in a line: Comparison of irradiated and non-irradiated product (gamma radiation, HPLC).
Series [6] can be described thus: Dissolution of Ilomastat in pH 7.6 aqueous solution without DMSO. The class given is physicochemical. As for the experimental part:
The curve was created as follows. […] The stock solution was then diluted in individual containers to give six other solutions with the following concentrations: 80 μM, 60 μM, 40 μM, 20 μM, 10 μM and 5 μM. Each solution was then evaluated three times by HPLC and the absorbance was determined.
A standard tablet punch and die and a press with an applied a pressure of five bars were used.

The test system of series [7] is rabbit bleb after trabeculectomy. To be noted: 17 injections in DMSO, 30 days, vs DMSO only control; cited from earlier work.

`O=c1[nH]cc(F)c(=O)[nH]1` [5-FU] had a release period in series [1] (excipient-free 5-FU tablets A, B and C averaged) of 25 h. The release kinetics result in series [1] (excipient-free tablets, FIGS. 9 to 13) is “essentially linear release of drug over a period of many hours”.
`CNC(=O)[C@@H](NC(=O)[C@H](CC(C)C)NC(=O)[C@@H](S)CCN1C(=O)N(C)C(C)(C)C1=O)C(C)(C)C` [BMS-275291]: the “contraction of HTF populated collagen gels” value in series [2] was “inhibition of the contraction of the gels”.
Regarding `C[C@H](CS)C(=O)N1CCC[C@H]1C(=O)O` [Captopril], the “degradation caused from irradiation” value in series [3] is given as “not significant”.
Regarding `CNC(=O)[C@H](Cc1c[nH]c2ccccc12)NC(=O)[C@@H](CC(=O)NO)CC(C)C` [IRRADIATED ILOMASTAT], the “Contraction (%) of HTF collagen I gels” value in series [4] (DAY 0) worked out at 0%; in series [4] (DAY 1), 12.51%; in series [4] (DAY 2), 23.65%; in series [4] (DAY 3) it was 28.44%; in series [4] (DAY 4) it was 30.8%; in series [4] (DAY 5), 32.23%. The “Contraction (%) of HTF collagen I gels” value turned out to be 33.76% in series [4] (DAY 6) and 36.12% in series [4] (DAY 7). Moreover, in series [5] (25 kGy gamma radiation, HPLC extra peak), the “trace products formed after irradiation, compared to total Ilomastat” value was found to be 0.25%.
Regarding `CNC(=O)[C@H](Cc1c[nH]c2ccccc12)NC(=O)[C@@H](CC(=O)NO)CC(C)C` [Ilomastat, N-[(2R)-2-(hydroxamidocarbonylmethyl)-4-methylpentanoyl]-L tryptophan methylamide], the “time for which an MMP inhibitory concentration of 10 μM is maintained” value in series [1] (solid dosage form of about 2 to 5 mg) is “at least 30 days”. The “theoretical maximum dissolution in the aqueous solution” value in series [6] is reported as “about 100 μM”. Further, the “concentrations inhibiting in vitro contraction in collagen I gels in a dose dependent manner” value in series [2] (Daniels et al. 2003, WO 95/24921) was 10 to 100 nM. Also, the “contraction of HTF populated collagen gels” value in series [2] was “inhibition of the contraction of the gels”. For the same compound, the bleb survival result in series [7] was “prolong significantly the bleb survival”. Also, in series [5] (25 KGys dose), the “degradation caused by gamma radiation” value is recorded as “not significant”.
As for `CNC(=O)[C@H](Cc1c[nH]c2ccccc12)NC(=O)[C@@H](CC(=O)NO)CC(C)C` [NON IRRADIATED], the “Contraction (%) of HTF collagen I gels” value in series [4] (DAY 0) is given as 0%; in series [4] (DAY 1) it was 11.96%; in series [4] (DAY 2), 27.19%; in series [4] (DAY 3), 32.97%; in series [4] (DAY 4), 39.9%; in series [4] (DAY 5), 41.66%. Also, the “Contraction (%) of HTF collagen I gels” value came out at 42.03% in series [4] (DAY 6) and 43.19% in series [4] (DAY 7).
Regarding `CNC(=O)[C@H](Cc1c[nH]c2ccccc12)NC(=O)[C@@H](CC(=O)NO)CC(C)C` [Non-Irradiated Ilomastat with DMSO], the “Contraction (%) of HTF collagen I gels, Average” value turned out to be 19.35% in series [4] (Day 1); 22.63% in series [4] (Day 2); 23.325% in series [4] (Day 3); 24.14% in series [4] (Day 4); 25.375% in series [4] (Day 5); 27.6425% in series [4] (Day 6). The “Contraction (%) of HTF collagen I gels, Average” value in series [4] (Day 7) is reported as 28.2525%. Besides, the “Contraction (%) of HTF collagen I gels, Group 1” value in series [4] (Day 1) stood at 13.03%; in series [4] (Day 2) it was 19.75%; in series [4] (Day 3), 20.44%; in series [4] (Day 4), 21.15%; in series [4] (Day 5) it was 23.36%; in series [4] (Day 6) it was 24.42%. Moreover, in series [4] (Day 7), the “Contraction (%) of HTF collagen I gels, Group 1” value came out at 25.07%. For the same compound, the “Contraction (%) of HTF collagen I gels, Group 2” value in series [4] (Day 1) is on record as 19.45%; in series [4] (Day 2) it was 22.77%; in series [4] (Day 3), 24.14%; in series [4] (Day 4), 25.19%; in series [4] (Day 5), 25.33%; in series [4] (Day 6), 27.9%. The “Contraction (%) of HTF collagen I gels, Group 2” value in series [4] (Day 7) turned out to be 29%. Also, the “Contraction (%) of HTF collagen I gels, Group 3” value turned out to be 20.69% in series [4] (Day 1); 21.37% in series [4] (Day 2); 21.55% in series [4] (Day 3); 22.11% in series [4] (Day 4); 22.96% in series [4] (Day 5); 24.9% in series [4] (Day 6). Further, the “Contraction (%) of HTF collagen I gels, Group 3” value in series [4] (Day 7) turned out to be 24.9%. Besides, the “Contraction (%) of HTF collagen I gels, Group 4” value was 24.23% in series [4] (Day 1); 26.63% in series [4] (Day 2); 27.17% in series [4] (Day 3); 28.11% in series [4] (Day 4); 29.85% in series [4] (Day 5); 33.35% in series [4] (Day 6). Besides, the “Contraction (%) of HTF collagen I gels, Group 4” value in series [4] (Day 7) was 34.04%.
